Source: US8334261B2, “Osteopenia animal model” (Oriental Yeast Co., Ltd., priority 2006, dated 2012)

What was measured:
Format in all cases: in vivo, mouse
[1] = test system: 7-week-old male C57BL/6N mice; assay: Evaluation of male mice
Experimental: GST-RANKL was intraperitoneally administered 3 times to groups of 7-week-old male C57BL/6N mice at 1 mg/kg every 24 hours. The femur and serum were collected from each mouse 1.5 hours after the 3rd administration and compared with those of the PBS administration group. Regarding bone metabolism markers, TRAP-5b, calcium (Ca), and alkaline phosphatase (ALP) in the serum were measured. Each femur was subjected to bone density measurement with pQCT and image analysis with micro CT.

[2] = test system: 7-week-old female C57BL/6N mice; assay: Evaluation of a bone mass increase with PTH (GST-RANKL, ovariectomy); settings: for femur bone density decrease vs PBS+Sham: GST-RANKL+Sham
Experimental: GST-RANKL was administered twice to groups of 7-week-old female C57BL/6N mice at 1 mg/kg every 24 hours. Ovariectomy was performed 24 hours after the 2nd administration. In addition, parathyroid hormone (PTH) was subcutaneously administered thereto at 160 μg/kg from 24 hours after the ovariectomy for 10 consecutive days. Further, a group obtained by PBS administration and sham operation (Sham) was designated as a control group for comparison. The serum markers and the femur bone density were measured.

[3] = test system: 7-week-old female C57BL/6 mice; assay: Administration of GST-RANKL for 7 consecutive days
Experimental: GST-RANKL was intraperitoneally administered to groups of 7-week-old female C57BL/6 mice at 2 mg/kg/day for 7 consecutive days. The serum and femur were collected from each mouse 1.5 hours after the 7th administration. The serum and femur obtained from each mouse were subjected to measurement of serum markers and bone density measurement with pQCT, respectively.

[4] = test system: GST-RANKL-administered 7-week-old female C57BL/6 mice; assay: Comparison of a plurality of bisphosphonates in GST-RANKL mice; settings: for femur bone density decrease vs PBS group: GST-RANKL 1 mg/kg 3 times
Experimental: GST-RANKL was intraperitoneally administered 3 times at 1 mg/kg every 24 hours. The femur, tibia, and serum were collected from each mouse 1.5 hours after the 3rd GST-RANKL administration. Measurement of TRAP-5b, calcium (Ca), and alkaline phosphatase (ALP) in the serum was carried out. Each femur was subjected to bone density measurement with pQCT and image analysis with micro CT.

[5] = test system: 7-week-old female C57BL/6N mice; assay: Bone healing after GST-RANKL administration
Experimental: GST-RANKL was intraperitoneally administered twice to groups of 7-week-old female C57BL/6N mice at 1 mg/kg every 24 hours. The time point 24 hours after the 2nd administration was designated as “week 0.” The serum and femur were collected from each mouse separately at weeks 0, 1, 4, 6, and 8 and compared with those collected from mice subjected to PBS administration in a similar manner. Regarding bone metabolism markers, TRAP-5b, calcium (Ca), and alkaline phosphatase (ALP) in the serum were measured. Each femur was subjected to bone density measurement with pQCT and image analysis with micro CT.
The bone density was measured at points 0.6 mm, 0.8 mm, 1.0 mm from the distal growth plate on the proximal side of the femur with the use of pQCT.

[6] = test system: GST-RANKL-administered, ovariectomized 7-week-old female C57BL/6N mice; assay: Drug evaluation with a selective estrogen receptor modulator (raloxifene) in GST-RANKL/OVX mice
From the text: In addition, PBS (i.p.) and ultrapure water (p.o.) were used as control substances for comparison with GST-RANKL and raloxifene, respectively, upon administration.
The serum collected from each mouse was subjected to measurement of serum bone resorption markers (Ca and TRAP-5b) and an osteogenesis marker (ALP). Each femur was subjected to measurement of the bone density, the bone mineral content, and the cortical bone thickness with pQCT at points 0.6, 0.8, 1.0 mm from the distal growth plate on the proximal side. In addition, image analysis was carried out with micro CT.

[7] = test system: 12-week-old male and female C57BL/6N mice; assay: GST-RANKL administration to 12-week-old mice
Experimental: GST-RANKL was intraperitoneally administered 3 times to 12-week-old male and female C57BL/6N mice at 1 mg/kg every 24 hours. The serum and femur were collected from each mouse 1.5 hours after the 3rd administration. The serum collected from each mouse was subjected to measurement of serum bone resorption markers (Ca and TRAP-5b) and an osteogenesis marker (ALP). Each femur was subjected to bone density measurement by dual energy X-ray absorptiometry (DEXA) and image analysis with micro CT.

[8] = test system: GST-RANKL-administered 7-week-old female C57BL/6N mice; assay: Evaluation of a bone mass increase with low-dose PTH in GST-RANKL mice; settings: GST-RANKL 1 mg/kg i.p. 2 times
Experimental: GST-RANKL was intraperitoneally administered 2 times to groups of 7-week-old female C57BL/6N mice at 1 mg/kg every 24 hours. PTH was subcutaneously administered thereto at 40 or 80 μg/kg from 24 hours after the 2nd administration every 24 hours for 10 consecutive days. In addition, PBS was administered to a group serving as the control group for the GST-RANKL and PTH administration groups for comparison. The serum and femur were collected from each mouse 24 hours after the end of administration for 10 days.
The serum collected from each mouse was subjected to measurement of serum bone resorption markers (Ca and TRAP-5b) and an osteogenesis marker (ALP). Each femur was subjected to measurement of the total bone density, the cortical bone density, the cortical bone thickness, the cortical bone mineral content, and the cortical bone density in the diaphysis with pQCT at points 0.6, 0.8, and 1.0 mm […] the distal growth plate on the proximal side. In addition, image analysis was carried out with micro CT.

[9] = GST-RANKL administration+OVX group, 1.0 mm
[10] = 12-week-old male, no significant difference

For “GST-RANKL: fused protein of Glutathione S-transferase with human RANKL residues 140-317, expressed in Escherichia coli, 47.0 kDa”, the “serum ALP concentration” value ([1]; 1 mg/kg i.p. 3 times) was “no changes”, the “serum TRAP-5b concentration increase” value ([1]; 1 mg/kg i.p. 3 times) was “approximately 65%” and the “serum Ca concentration increase vs PBS group” value ([1]; 1 mg/kg i.p. 3 times, no significant difference) was 7%. The “femur bone density decrease” value ([1]; 0.6 mm) was “approximately 6%”, the “femur bone density decrease” value ([1]; 0.8 mm) was “approximately 10%” and the “femur bone density decrease” value ([1]; 1.0 mm) was “approximately 15%”. For the same substance, the “femur bone density vs PBS+Sham” value ([2]; GST-RANKL+OVX group) was “No bone density decrease was observed”, the “femur bone density decrease vs PBS+Sham” value ([2]; 0.6 mm) was “approximately 17%” and the “femur bone density decrease vs PBS+Sham” value ([2]; 0.8 mm) was ~15%. The “femur bone density decrease vs PBS+Sham” value ([2]; 1.0 mm) was ~18%, the “serum Ca concentration” value ([2]; every GST-RANKL administration group) was “no changes” and the “serum ALP concentration decrease” value ([2]; every GST-RANKL administration group, 1 mg/kg twice) was “approximately 24%”. For the same substance, the “femur bone density decrease vs control” value ([3]; 2 mg/kg/day 7 days, 0.6 mm) was “approximately 21%”, the “femur bone density decrease vs control” value ([3]; 2 mg/kg/day 7 days, 0.8 mm) was “approximately 32%” and the “femur bone density decrease vs control” value ([3]; 2 mg/kg/day 7 days, 1.0 mm) was “approximately 47%”. For the same substance, the “serum TRAP-5b concentration increase” value ([3]; 2 mg/kg/day 7 days, no significant difference) was “approximately 30%”, the “serum ALP concentration increase” value ([3]; 2 mg/kg/day 7 days, p<0.02) was “approximately 30%” and the “serum Ca concentration increase” value ([3]; 2 mg/kg/day i.p. 7 consecutive days, no significant difference) was “approximately 20%”. The “femur bone density decrease vs PBS group” value ([4]; 0.6 mm) was 7%, the “femur bone density decrease vs PBS group” value ([4]; 0.8 mm) was 13% and the “femur bone density decrease vs PBS group” value ([4]; 1.0 mm) was 18%. The “serum TRAP-5b concentration increase” value ([4]; GST-RANKL 1 mg/kg i.p. 3 times, no significant difference) was “approximately 40%”, the “serum Ca concentration” value ([5]; 1 mg/kg i.p. twice, weeks 0 to 8) was “no significant difference” and the “femur bone density decreased to, vs PBS group” value ([5]; 0.6 mm, week 0) was 5%. For the same substance, the “femur bone density decreased to, vs PBS group” value ([5]; 0.6 mm, week 1) was 7%, the “femur bone density decreased to, vs PBS group” value ([5]; 0.6 mm, week 4) was 9% and the “femur bone density decreased to, vs PBS group” value ([5]; 0.8 mm, week 0) was 10%. For the same substance, the “femur bone density decreased to, vs PBS group” value ([5]; 0.8 mm, week 1) was 11%, the “femur bone density decreased to, vs PBS group” value ([5]; 0.8 mm, week 4) was 15% and the “femur bone density decreased to, vs PBS group” value ([5]; 1.0 mm, week 0) was 16%. The “femur bone density decreased to, vs PBS group” value ([5]; 1.0 mm, week 1) was 13%, the “femur bone density decreased to, vs PBS group” value ([5]; 1.0 mm, week 4) was 11% and the “serum TRAP-5b concentration, fold as high as PBS group” value ([5]; 24 hours after RANKL administration (0 week)) was “approximately 3 fold”. The “femur bone density vs PBS group” value ([5]; week 6) was “returned to a level comparable to that for the PBS administration group”, the “serum ALP concentration, fold as high” value ([5]; weeks 0 and 1) was “approximately 1.4 fold” and the “serum ALP concentration vs PBS+Sham group” value ([6]; GST-RANKL administration+OVX group) was “tended to increase”. The “cortical bone mineral content decrease vs PBS+Sham group” value [6, 9] was 49%, the “cortical bone thickness decrease vs PBS+Sham group” value [6, 9] was 49% and the “total bone density vs PBS+Sham group” value ([6]; GST-RANKL administration+OVX group, no significant difference) was “tended to decrease”. The “cancellous bone density (pQCT)” value ([6]; among the all groups) was “no significant differences”, the “total bone density decrease (DEXA) vs control” value ([7]; 12-week-old female) was 6% and the “serum ALP concentration vs PBS group” value ([7]; 12-week-old female, no significant difference) was “tended to increase”. For the same substance, the “serum TRAP-5b concentration vs PBS group” value ([7]; 12-week-old female, p<0.01) was “significantly increased”, the “serum Ca concentration vs PBS group” value ([7]; 12-week-old female, p<0.05) was “significantly increased” and the “total bone density decrease (DEXA) vs control” value ([7]; 12-week-old male) was 8%. The “serum TRAP-5b concentration vs PBS group” value ([7]; 12-week-old male, 1 mg/kg i.p. 3 times, p<0.05) was “significantly increased”, the “serum ALP concentration vs PBS group” value [7, 10] was “tended to increase” and the “serum Ca concentration vs PBS group” value [7, 10] was “tended to increase”. The “cortical bone density in the diaphysis, decrease vs PBS control” value [8] was 3%.
